According to US10918623B2, “Methods of treating influenza” (Biotron Limited, priority 2017, dated 2021):

How the values were obtained:
influenza = conditions: human, in vivo; cited from earlier work
SHIV-1PND2 = type: cell-based
in vitro = conditions: dog
Influenza A (H3N2) = type: cell-based
[1] = test system: SHIV-1SCVpu (ion channel sequence of HIV-1 Vpu); type: cell-based
[2] = test system: PR8 wild-type influenza A virus; test: microbe, parasite or virus in culture; type: cell-based; conditions: PR8, MDCK
MDCK cells = conditions: dog
[3] = molecular target: M2 viroporin of influenza A (Influenza A virus, UniProt P06821); conditions: cited from earlier work
Influenza A (H1N1) = type: cell-based

Chain of M2 viroporin of influenza A (P06821 whole entry, looked up): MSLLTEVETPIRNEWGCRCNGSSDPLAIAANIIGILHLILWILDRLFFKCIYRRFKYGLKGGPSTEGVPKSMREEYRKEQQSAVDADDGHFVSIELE

SMILES | Reduction of time to alleviation of symptoms of influenza (influenza) | Virus replication (SHIV-1PND2) | CC50 (in vitro) | Comments (Influenza A (H3N2)) | Virus released into the culture supernatant as measured by viral p27 protein [1] | EC50 [2] | EC90 [2] | Toxic effects (no toxic effects up to) (MDCK cells) | Activity against the M2 viroporin of influenza A [3] | Comments (Influenza A (H1N1))
CCOC(=O)C1=C[C@@H](OC(CC)CC)[C@H](NC(C)=O)[C@@H](N)C1 [oseltamivir] | 16.8 h | – | – | – | – | – | – | – | – | –
Cn1cc(-c2cccc3cc(C(=O)NC(=N)N)ccc23)cn1 [BIT225, N-carbamimidoyl-5-(1-methyl-1H-pyrazol-4-yl)-2-naphthamide] | – | does not significantly reduce virus replication | 32 µM | Active | reduced virus released | ~10 µM | 12 µM | > 100 µM | only limited activity | Active
